According to patent US5681823A, “P^1, P^4 -dithio-P^2 -P^3 -monochloromethylene 5', 5'"-diadenosine P^1, P^4 -tetraphosphate as antithrombotic agent” (PRP Inc., priority 1996, dated 1997):
“Also recorded” adds a separate entry of the source. Where two headings read alike, the source gives them in different places.

Assays:
[1] = tested on: ADP-induced platelet aggregation; assay: ADP-induced platelet aggregation in platelet-rich plasma (turbidimetric method of Born, aggregometer); format: cell-based, human; settings: ADP-induced aggregation, PRP, mean of three (*) or two determinations
Protocol: (§1) Unless otherwise provided below, the experimental procedures were performed according to the procedures provided in U.S. Pat. No. 5,049.550 (Zamecnik '550), the entire contents of which are incorporated herein by reference. Some alternative procedures (e.g., release reaction, PF3 assays) and a number of additional studies also are provided (e.g., cytoplasmic calcium mobilization, fibrinogen binding site, agonists other than ADP, platelet cAMP and distribution of CHCl-AP4 A into blood components). Blood was collected in a 0.1 volume of 3.8% sodium citrate from healthy human volunteers who had abstained from antiplatelet agents for at least 10 days. Platelet rich plasma (PRP) was separated by a gradual centrifugation and adjusted to 3.3×10^8 platelets per ml plasma. PRP has been utilized in the Examples unless otherwise stated.
An initial screening was performed for inhibitory effects of several agents (including, e.g., thio-CHCl-AP4 A and CHCl-AP4 A as reference agent)) on platelet aggregation induced by ADP. Platelet aggregation was measured with platelet-rich plasma (PKP) by the turbidimetric method of Born (J. Physiol. 162:67, 1962) in an aggregometer (Chrono-log, Model 530 VS). Platelet aggregation induced by 5 μM ADP in the absence or presence of 5 μM agents was examined. […] The IC50 value of the CHCl-AP4 A (reference agent) was consistent with the value reported previously (P. Zamecnik et al., Proc. Nat'l. Acad. Sci. USA 89:2370-2373 (1992)).

[2] = cited from earlier work
[3] = tested on: ADP-induced platelet aggregation; settings: cited from earlier work
[4] = tested on: ADP-induced platelet aggregation; thrombus formation; settings: in words; cited from earlier work
[5] = cited from earlier work; remark: listed apart in the source
[6] = in words, cited from earlier work; for side effects / bleeding risk: clinical
[7] = tested on: ADP-induced platelet aggregation; settings: Zamecnik '550 Table 3; cited from earlier work
[8] = tested on: Cytoplasmic Calcium Ion (Ca^++) Mobilization in platelets; assay: Cytoplasmic calcium ion mobilization in platelets (Indo-1, flow cytometer); format: cell-based, human; settings: unstimulated peak 133
Protocol: as §1
An increment of cytoplasmic Ca^++ in the platelets represents an activated state. Indo-1 acetomethyl ester (Indo-1) commonly has been utilized as the reagent to detect intracellular free Ca^++. Indo-1 reacts with Ca^++ and produces fluorescence which can be monitored in a dual wavelength (408/485) flow cytometer (Coulter EPIC Systems). Platelets were incubated with Indo-1 at 37° C. for 45 min. Excess Indo-1 in the medium was removed by gel-filtration method. Indo-1-loaded platelets were then activated by 6.7 μM ADP in the absence or presence of thio-CHCl-AP4 A (3.3 μM) or CHCl-AP4 A (6.7 μM). Fluorescence intensity of the platelets was monitored and plotted against platelet number. The histograms generated from the plots were analyzed. Unstimulated platelets registered fluorescence intensity (FI) between 42 and 250 with a peak at 133 (base line control).

[9] = tested on: platelet cAMP level; assay: Level of intracellular platelet cAMP (etheno-cAMP, HPLC); format: cell-based, human; settings: 10 μM agent, 37° C., 5 min; control 31.6
Protocol: as §1
The inhibitory effect of cAMP on platelet aggregation has been known as a counteraction of calcium ion mobilization. Accordingly, the inhibitory effects of the agents with respect to a cAMP mediated mechanism was tested. PRP was incubated with saline (control), agents (at 20 μM and 100 μM), or forskolin (10 μM) at 37° C. for 5 min. After incubation, extracts were made using Ba(OH)2 and ZnSO4. Cyclic AMP in the extracts was converted into the etheno-cAMP derivative, and the levels were estimated by HPLC using a fluorescence detector (W. Wojcik et al., J. Cyclic Nucleotide Res. 7:27-35 (1981)). The level of cAMP in an unknown extract was determined by extrapolation from a standard graph. A linear relationship between the cAMP level in the extracted samples and fluorescence detection was observed. […] However, this increase may not be a specific effect. Although adenosine contamination in the tested AP4 A agents was not detected, it is possible that either cellular adenosine nucleotide metabolic products or contaminated adenosine in the tested agents may be responsible for the elevated cAMP level.

[10] = tested on: platelet cAMP level; assay: as above; format: cell-based, human; settings: forskolin 101 μM as printed, positive control, in words

**Q.** Which IC50 [1] does the source give for `Nc1ncnc2c1ncn2[C@H]1C[C@H](O)[C@@H](COP(O)(=S)OP(=O)(O)C(Cl)P(=O)(O)OP(O)(=S)OC[C@H]2O[C@@H](n3cnc4c(N)ncnc43)C[C@@H]2O)O1` (some centres unmarked) [Thio-CHCl-dAP4 dA] here?
**A.** 9.22 µM

**Q.** With `Nc1ncnc2c1ncn2[C@@H]1O[C@H](COP(=O)(O)OP(=O)(O)OP(=O)(O)OP(=O)(O)OC[C@H]2O[C@@H](n3cnc4c(N)ncnc43)[C@H](O)[C@@H]2O)[C@@H](O)[C@H]1O` [AP4 A, diadenosine 5', 5'"-P^1,P^4 -tetraphosphate] as the compound, how does the “half-life in rabbit blood” value ([2]; in vivo and ex vivo) read?
**A.** short half-life

**Q.** And the “ex vivo decay compared to in vivo clearance” value ([2]; rabbit blood)?
**A.** significantly longer

**Q.** What about the “dispersion of aggregated platelets” value ([3]; even when aggregation has progressed to 60% completion) of the same compound?
**A.** immediate dispersion of aggregated platelets

**Q.** And the “effect on ADP-induced platelet aggregation” value ([3]; in vitro, in words)?
**A.** competitive inhibitor; also recorded: competitively inhibits

**Q.** What about the “effect on ADP-induced platelet aggregation on administration to a mammal” value [4] of the same compound?
**A.** inhibit markedly ADP-induced platelet aggregation

**Q.** What about the “effect on thrombus formation on administration to a mammal” value [4] of the same compound?
**A.** inhibit thrombus formation

**Q.** And the “AP4 A degraded in plasma” value ([5]; ^32 P-labeled, normal plasma, ten minutes, 37° C., 10 min)?
**A.** 90%

**Q.** And the “degradation products in plasma” value [5]?
**A.** degraded to AMP and ATP (adenosine triphosphate)

**Q.** Which “side effects / bleeding risk” value [6] does the source give for “ReoPro: newer drugs, such as ReoPro (7E3)” here?
**A.** increased risk of major bleeding

**Q.** For `CC(=O)Oc1ccccc1C(=O)O` [aspirin], which clinical effectiveness [6] is on record?
**A.** useful but limited effectiveness

**Q.** Which “side effects / bleeding risk” value [6] does the source give for `Clc1ccccc1CN1CCc2sccc2C1` [ticlopidine] here?
**A.** substantial side effects

**Q.** Which ID10 [7] does the source give for `Nc1ncnc2c1ncn2[C@@H]1O[C@H](COP(=O)(O)OP(=O)(O)C(F)P(=O)(O)OP(=O)(O)OC[C@H]2O[C@@H](n3cnc4c(N)ncnc43)[C@H](O)[C@@H]2O)[C@@H](O)[C@H]1O` (some centres unmarked) [AppCHFppA] here?
**A.** 4 µM

**Q.** With `Nc1ncnc2c1ncn2[C@@H]1O[C@H](COP(=O)(O)OP(=O)(O)OP(=O)(O)OC[C@H]2O[C@@H](n3cnc4c(N)ncnc43)[C@H](O)[C@@H]2O)[C@@H](O)[C@H]1O` [AP3 A, diadenosine 5', 5'"-p^1, p^3 -triphosphate] as the compound, how does the “effect on platelet aggregation” value ([3]; AP3 A, in words) read?
**A.** gradual aggregation of platelets

**Q.** And the “degradation products in plasma” value [5]?
**A.** hydrolyzed in plasma to AMP (adenosine monophosphate) and ADP (adenosine diphosphate)

**Q.** With `CNc1ccc2oc(C[C@H]3O[C@@]4(CC[C@H]3C)O[C@H]([C@H](C)C(=O)c3ccc[nH]3)[C@H](C)C[C@H]4C)nc2c1C(=O)O` [A23187] as the compound, how does the “fluorescence intensity (FI), peak” value ([8]; 2 μM A23187, positive control) read?
**A.** 530

**Q.** For `Nc1ncnc2c1ncn2[C@@H]1O[C@H](COP(=O)(O)OP(=O)(O)O)[C@@H](O)[C@H]1O` [ADP, adenosine diphosphate], which “fluorescence intensity (FI), peak” value ([8]; 6.7 μM ADP, no agent) is on record?
**A.** 158

**Q.** Which IC50 ([1]; read-out: IC50) does the source give for `Nc1ncnc2c1ncn2[C@H]1C[C@H](O)[C@@H](COP(=O)(O)OP(=O)(O)C(Cl)P(=O)(O)OP(=O)(O)OC[C@H]2O[C@@H](n3cnc4c(N)ncnc43)C[C@@H]2O)O1` (some centres unmarked) [CHCl-dAP4 dA] here?
**A.** > 100 µM

**Q.** Which “platelet cAMP level” value [9] does the source give for `C=C[C@@]1(C)CC(=O)[C@]2(O)[C@@]3(C)[C@@H](O)CCC(C)(C)[C@@H]3[C@H](O)[C@H](OC(C)=O)[C@@]2(C)O1` [Forskolin] here?
**A.** 124.4 nM

**Q.** What about the “effect on platelet cAMP” value [10] of the same compound?
**A.** marked increase
